From publication PMC12265714 (bioRxiv, 2025)

Molecular target: T1, ComFB (FB; Bsu FB) (Bacillus subtilis, UniProt P39146)
T1 sequence (P39146 1-98): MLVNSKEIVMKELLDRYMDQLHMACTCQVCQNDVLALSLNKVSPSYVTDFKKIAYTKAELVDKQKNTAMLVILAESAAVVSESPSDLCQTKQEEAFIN
Assay: isothermal titration calorimetry, one-site model
Assay type: binding

Question: `Nc1ncnc2c1ncn2[C@@H]1O[C@@H]2COP(=O)(O)O[C@H]3[C@@H](O)[C@H](n4cnc5c(N)ncnc54)O[C@@H]3COP(=O)(O)O[C@H]2[C@H]1O` [c-di-AMP] was tested. Which Kd did it give?
Answer: 69.1 ± 139 µM

Question: With `Nc1nc2c(ncn2[C@@H]2O[C@@H]3CO[P@](=O)(O)O[C@H]4[C@@H](O)[C@H](n5cnc6c(=O)[nH]c(N)nc65)O[C@@H]4CO[P@](=O)(O)O[C@H]3[C@H]2O)c(=O)[nH]1` [c-di-GMP] as the compound, how does the Kd read?
Answer: 0.14 ± 0.05 µM
